# Values joined by “and” are separate entries in the source; they are usually repeats but may differ in a detail not shown here. Identical values can stand only once.
# What was measured:
# [1] = tested on: P. granulosum PRP-005; assay: Disc diffusion assay (DDA), also supplemented; assay type: cell-based; conditions: 200 μg per disc
# Procedure: (§6) The propionibacteria were cultured and maintained on Wilkins-Chalgren Anaerobe Medium (agar and broth) at pH 6.0; all cultures were incubated anaerobically at 37° C. for 72 hours.
# (§7) A sterile paper disc was impregnated with a sample of the test compound in a suitable solvent and 30 minutes allowed for the solvents to evaporate (where possible). The disc was then placed on an agar plate onto which the test micro-organism had been inoculated. The plate was then incubated under the conditions described above, following which it was examined visually for signs of bacterial growth. […] The diameter of this zone of “inhibition” was measured using a ProtoCOL™ automated zone sizer (Synbiosis, Cambridge, UK).
# (§8) For assays using Propionibacterium spp. strains the supplements used in the examples below were lipid (either Tween™ 80 or triolein, both at 1% v/v) and sodium chloride (100 mM).
# [2] = tested on: S. aureus ATCC 29213; assay: Minimum bactericidal concentration (MBC) assay; assay type: cell-based, Staphylococcus aureus
# Procedure: (§1) (b) Minimum Bactericidal Concentration (MBC) Assay
# (§2) Following incubation they were examined visually for bacterial growth.
# [3] = tested on: P. acnes NCTC 737; assay: Minimum inhibitory concentration (MIC) assay; assay type: cell-based, Propionibacterium acnes
# Text: (§3) (a) Minimum Inhibitory Concentration (MIC) Assay
# (§4) The culture media were as described above.
# (§5) The assays included both negative (culture medium with no micro-organisms) and positive (culture medium plus diluting solvent plus micro-organism) controls.
# [4] = tested on: P. acnes PRP-068; assay: Disc diffusion assay (DDA), also supplemented; assay type: cell-based, Propionibacterium acnes; conditions: 200 μg per disc
# Procedure: as §6, §7, §8
# [5] = tested on: P. acnes PRP-101; assay: Disc diffusion assay (DDA), also supplemented; assay type: cell-based, Propionibacterium acnes; conditions: 200 μg per disc
# Procedure: as §6, §7, §8
# [6] = tested on: P. acnes PRP-039; assay: Disc diffusion assay (DDA), also supplemented; assay type: cell-based, Propionibacterium acnes; conditions: 200 μg per disc
# [7] = tested on: S. aureus ATCC 29213; assay: Synergy disc diffusion assay (SDDA), also supplemented;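 further: disc diffusion on Mueller-Hinton agar at pH 7.2, aerobic incubation at 37 °C lasting 19-20 h, two compounds assessed jointly for combined antimicrobial effect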
# [8] = tested on: P. acnes PRP-053; assay: Disc diffusion assay (DDA), also supplemented; assay type: cell-based, Propionibacterium acnes; conditions: 200 μg per disc
# Procedure: as §6, §7, §8
# [9] = tested on: P. acnes PRP-023; assay: Disc diffusion assay (DDA), also supplemented; assay type: cell-based, Propionibacterium acnes; conditions: 200 μg per disc
# Procedure: as §6, §7, §8
# [10] = tested on: P. acnes PRP-008; assay: Disc diffusion assay (DDA), also supplemented; assay type: cell-based, Propionibacterium acnes; conditions: 200 μg per disc
# Procedure: as §6, §7, §8
# [11] = tested on: P. acnes PRP-046; assay: Disc diffusion assay (DDA), also supplemented; assay type: cell-based, Propionibacterium acnes; conditions: 200 μg per disc
# [12] = tested on: P. acnes PRP-002; assay: Disc diffusion assay (DDA), also supplemented; assay type: cell-based, Propionibacterium acnes; conditions: 200 μg per disc
# Procedure: as §6, §7, §8
# [13] = tested on: P. acnes NCTC 737; assay: Synergy disc diffusion assay (SDDA), also supplemented
# [14] = tested on: P. granulosum PRP-019; assay: Disc diffusion assay (DDA), also supplemented; assay type: cell-based; conditions: 200 μg per disc
# Procedure: as §6, §7, §8
# [15] = tested on: P. granulosum NCTC 11865; assay: Disc diffusion assay (DDA), also supplemented; assay type: cell-based; conditions: 200 μg per disc
# Procedure: as §6, §7, §8
# [16] = tested on: P. acnes PRP-059; assay: Disc diffusion assay (DDA), also supplemented; assay type: cell-based, Propionibacterium acnes; conditions: 200 μg per disc
# Procedure: as §6, §7, §8
# [17] = tested on: P. acnes PRP-102; assay: Disc diffusion assay (DDA), also supplemented; assay type: cell-based, Propionibacterium acnes; conditions: 200 μg per disc
# Procedure: as §6, §7, §8
# [18] = tested on: panel of different propionibacterium strains; assay: MIC by agar dilution and (S)DDA, whole panel; assay type: cell-based, Propionibacterium spp; conditions: compound alone; also under supplemented conditions
# Procedure: For (S)DDA experiments 200 μg of each test compound was added per disc. […] MIC experiments were performed in duplicate, DDA experiments as single replicates only. SDDA experiments were conducted in triplicate.
# The activity of the salt (MIC by agar dilution and DDA) was also determined against a panel of different propionibacterium strains. Supplemented DDA experiments were also carried out. […] DMSO was used as the diluting solvent. MIC experiments were performed in duplicate and DDA experiments as single replicates only.
# [19] = tested on: S. aureus ATCC 29213; assay: Minimum inhibitory concentration (MIC) assay; assay type: cell-based, Staphylococcus aureus
# Text: as §3, §4, §5
# [20] = tested on: P. acnes PRP-003; assay: Disc diffusion assay (DDA), also supplemented; assay type: cell-based, Propionibacterium acnes; conditions: 200 μg per disc
# Procedure: as §6, §7, §8
# [21] = tested on: P. acnes PRP-010; assay: Disc diffusion assay (DDA), also supplemented; assay type: cell-based, Propionibacterium acnes; conditions: 200 μg per disc
# Procedure: as §6, §7, §8
# [22] = tested on: S. aureus ATCC 29213; assay: Disc diffusion assay (DDA), also supplemented
# [23] = tested on: P. granulosum PRP-055; assay: Disc diffusion assay (DDA), also supplemented; assay type: cell-based; conditions: 200 μg per disc
# Procedure: as §6, §7, §8
# [24] = tested on: P. granulosum PRP-021; assay: Disc diffusion assay (DDA), also supplemented; assay type: cell-based; conditions: 200 μg per disc
# Procedure: as §6, §7, §8
# [25] = tested on: P. acnes NCTC 737; assay: Minimum bactericidal concentration (MBC) assay; assay type: cell-based, Propionibacterium acnes
# Procedure: as §1, §2
structure (smiles),measurement,setting,value
O.O.O.O.O.O=S(=O)([O-])[O-].[Cu+2] [Copper (II) sulphate pentahydrate],DDA + salt,[1],29.19 mm
same,DDA + lipid,[1]; 1% (v/v) triolein,24.32 mm
same,DDA,[1]; single replicate,24.02 mm
same,DDA,[1]; Table 12 series,22.48 mm
same,MBC,[2],>250 µg/mL
same,MIC,[3],15.6 µg/mL
same,MIC/MBC ratio,[3],0.125
same,DDA + salt,[4],54.73 mm
same,DDA + lipid,[4]; 1% (v/v) triolein,49.56 mm
same,DDA,[4]; single replicate,52.90 mm
same,DDA,[4]; Table 12 series,51.12 mm
same,DDA + salt,[5],53.21 mm
same,DDA + lipid,[5]; 1% (v/v) triolein,55.03 mm
same,DDA,[5]; single replicate,45.30 mm
same,DDA,[5]; Table 12 series,43.49 mm
same,DDA + salt,[6],61.72 mm
same,DDA + lipid,[6]; 1% (v/v) triolein,59.29 mm
same,DDA,[6]; single replicate,53.51 mm
same,DDA,[6]; Table 12 series,56.35 mm
same,SDDA area increase,[7],88.33%
same,SDDA increase,[7],15.05 mm
same,SDDA with TBHQ,[7],55.47 mm
same,SS SDDA area increase,[7],10.90%
same,SS SDDA increase,[7],2.32 mm
same,SS SDDA with TBHQ,[7],46.00 mm
same,DDA + salt,[8],54.42 mm
same,DDA + lipid,[8]; 1% (v/v) triolein,51.08 mm
same,DDA,[8]; single replicate,43.78 mm
same,DDA,[8]; Table 12 series,50.18 mm
same,DDA + salt,[9],51.38 mm
same,DDA + lipid,[9]; 1% (v/v) triolein,47.43 mm
same,DDA,[9]; single replicate,47.13 mm
same,DDA,[9]; Table 12 series,60.95 mm
same,DDA + salt,[10],51.99 mm
same,DDA + lipid,[10]; 1% (v/v) triolein,48.65 mm
same,DDA,[10]; single replicate,52.29 mm
same,DDA,[10]; Table 12 series,43.70 mm
same,DDA + salt,[11],63.54 mm
same,DDA + lipid,[11]; 1% (v/v) triolein,60.81 mm
same,DDA,[11]; single replicate,53.81 mm
same,DDA,[11]; Table 12 series,50.29 mm
same,DDA + salt,[12],50.77 mm
same,DDA + lipid,[12]; 1% (v/v) triolein,47.13 mm
same,DDA,[12]; single replicate,49.25 mm
same,DDA,[12]; Table 12 series,57.92 mm
same,SDDA area increase,[13],108.63%
same,SDDA increase,[13],22.11 mm
same,SDDA with TBHQ,[13],71.86 mm
same,SL SDDA area increase,[13],64.85%
same,SL SDDA increase,[13],14.18 mm
same,SL SDDA with TBHQ,[13],64.14 mm
same,DDA + salt,[14],25.84 mm
same,DDA + lipid,[14]; 1% (v/v) triolein,24.02 mm
same,DDA,[14]; single replicate,22.80 mm
same,DDA,[14]; Table 12 series,24.15 mm
same,DDA + salt,[15],48.34 mm
same,DDA + lipid,[15]; 1% (v/v) triolein,41.65 mm
same,DDA,[15]; single replicate,48.34 mm
same,DDA,[15]; Table 12 series,53.32 mm
same,DDA + salt,[16],55.33 mm
same,DDA + lipid,[16]; 1% (v/v) triolein,48.95 mm
same,DDA,[16]; single replicate,48.04 mm
same,DDA,[16]; Table 12 series,50.70 mm
same,DDA + salt,[17],49.25 mm
same,DDA + lipid,[17]; 1% (v/v) triolein,50.77 mm
same,DDA,[17]; single replicate,46.52 mm
same,DDA,[17]; Table 12 series,51.65 mm
same,activity against propionibacterium strains tested (in words),[18],excellent level of activity
same,MIC,[19],>250 µg/mL
same,DDA + salt,[20],51.99 mm
same,DDA + lipid,[20]; 1% (v/v) triolein,45.91 mm
same,DDA,[20]; single replicate,52.60 mm
same,DDA,[20]; Table 12 series,50.18 mm
same,DDA + salt,[21],62.33 mm
same,DDA + lipid,[21]; 1% (v/v) triolein,46.82 mm
same,DDA,[21]; single replicate,63.24 mm
same,DDA,[21]; Table 12 series,46.73 mm
same,DDA,[22],0 mm and 0.00 (±0.00) mm
same,DDA + lipid,[22],0 mm
same,DDA + salt,[22],0 mm
same,DDA + salt & serum,[22],0 mm and 0.00 (±0.00) mm
same,DDA + salt,[23],28.88 mm
same,DDA + lipid,[23]; 1% (v/v) triolein,27.97 mm
same,DDA,[23]; single replicate,27.67 mm
same,DDA,[23]; Table 12 series,31.78 mm
same,DDA + salt,[24],32.84 mm
same,DDA + lipid,[24]; 1% (v/v) triolein,28.28 mm
same,DDA,[24]; single replicate,27.67 mm
same,DDA,[24]; Table 12 series,29.59 mm
same,MBC,[25],125 µg/mL

# From patent publication US20090246292A1, “ANTIMICROBIAL FORMULATIONS COMPRISING A QUINONE AND A COPPER SALT” (priority 2006, published 2009)
